Experimental data published in ChEMBL document CHEMBL1131475, “Discovery of ritonavir, a potent inhibitor of HIV protease with high oral bioavailability and clinical efficacy” (J Med Chem, 1998).

Experiments:
in vivo [1] = conditions: rat, plasma, po
in vivo [2] = conditions: rat, plasma, po, 10 mg/kg
[3] = Oral bioavailability in rat; assay type: ADME, organism-based; conditions: in vivo
in vivo [4] = conditions: rat, plasma, po; remark: listed apart in the source
in vivo [5] = conditions: rat, plasma, iv
Rattus norvegicus = species on record: Rattus norvegicus; assay: Plasma T1/2 in rat; assay type: ADME, organism-based; conditions: in vivo

Row | Tmax (in vivo [1]) [min] | Cmax (in vivo [2]) [nM] | bioavailability [3] [%] | AUC (in vivo [4]) [ng·h/mL] | half-life (in vivo [5]) [min] | T1/2 (Rattus norvegicus) | Structure (SMILES)
1 | 15 | 2130 | 18 | 1100 | 13.2 |  | CC(C)c1nc(CN(C)C(=O)NC(C(=O)N[C@@H](Cc2ccccc2)C[C@H](O)[C@H](Cc2ccccc2)NC(=O)OCc2cccnc2)C(C)C)co1 (stereo partly specified)
2 | 16.8 | 250 |  | 230 |  | Not soluble | CC(C)C(NC(=O)OCc1ccccn1)C(=O)N[C@@H](Cc1ccccc1)[C@@H](O)C[C@H](Cc1ccccc1)NC(=O)OCc1ccoc1 (stereo partly specified)
3 |  |  |  |  |  | Not soluble | CC(C)C(NC(=O)OCc1csc(N2CCOCC2)n1)C(=O)N[C@@H](Cc1ccccc1)[C@@H](O)C[C@H](Cc1ccccc1)NC(=O)OCc1cncs1 (stereo partly specified)
4 |  | 960 |  | 1530 |  | Not soluble | Cc1ncsc1CCOC(=O)NC(C(=O)N[C@@H](Cc1ccccc1)C[C@H](O)[C@H](Cc1ccccc1)NC(=O)OCc1cccnc1)C(C)C (stereo partly specified)
5 | 6 | 1330 | 10 | 640 | 69 |  | Cc1cncc(COC(=O)NC(C(=O)N[C@@H](Cc2ccccc2)C[C@H](O)[C@H](Cc2ccccc2)NC(=O)OCc2cccnc2)C(C)C)n1 (stereo partly specified)
6 | 10.8 | 3330 | 35 | 2050 | 32.4 |  | CC(C)C(NC(=O)OCc1nccs1)C(=O)N[C@@H](Cc1ccccc1)[C@@H](O)C[C@H](Cc1ccccc1)NC(=O)OCc1cccnc1 (stereo partly specified)
7 | 16.8 | 650 | 9.4 | 400 | 20.4 |  | CC(C)c1nc(CN(C(=O)NCCC(=O)N[C@@H](Cc2ccccc2)[C@@H](O)C[C@H](Cc2ccccc2)NC(=O)OCc2cncs2)C2CC2)cs1
8 | 6 | 1220 | 6.7 | 290 | 26.4 |  | Cc1ccc(CN(C)C(=O)NC(C(=O)N[C@@H](Cc2ccccc2)[C@@H](O)C[C@H](Cc2ccccc2)NC(=O)OCc2cccnc2)C(C)C)cn1 (stereo partly specified)
9 | 6 | 210 | 1.6 | 50 | 14.4 |  | CC(C)c1nc(COC(=O)NC(C(=O)N[C@@H](Cc2ccccc2)C[C@H](O)[C@H](Cc2ccccc2)NC(=O)OCc2cccnc2)C(C)C)cs1 (stereo partly specified)
10 | 228 | 3330 |  | 9850 |  | Not soluble | CCN(Cc1csc(C(C)C)n1)C(=O)NC(C(=O)N[C@@H](Cc1ccccc1)C[C@H](O)[C@H](Cc1ccccc1)NC(=O)OCc1cncs1)C(C)C (stereo partly specified)
11 | 18 | 910 | 5.1 | 220 | 52.2 |  | CC(C)C(NC(=O)N(C)Cc1ccccn1)C(=O)N[C@@H](Cc1ccccc1)C[C@H](O)[C@H](Cc1ccccc1)NC(=O)OCc1cncnc1 (stereo partly specified)
12 | 8.4 | 160 |  | 20 |  | Not soluble | Cc1cccc(COC(=O)NC(C(=O)N[C@@H](Cc2ccccc2)C[C@H](O)[C@H](Cc2ccccc2)NC(=O)OCc2ccoc2)C(C)C)n1 (stereo partly specified)
13 | 6 | 120 | 0.6 | 20 | 16.2 |  | COCc1ncc(COC(=O)NC(C(=O)N[C@@H](Cc2ccccc2)C[C@H](O)[C@H](Cc2ccccc2)NC(=O)OCc2cccnc2)C(C)C)s1 (stereo partly specified)
14 | 9 | 1520 | 17 | 550 | 18 |  | Cc1ncc(CN(C)C(=O)NC(C(=O)N[C@@H](Cc2ccccc2)[C@@H](O)C[C@H](Cc2ccccc2)NC(=O)OCc2cccnc2)C(C)C)nc1C (stereo partly specified)
15 | 22.2 | 3130 | 35 | 1660 | 84 |  | CC(C)C(NC(=O)N(C)Cc1cscn1)C(=O)N[C@@H](Cc1ccccc1)[C@@H](O)C[C@H](Cc1ccccc1)NC(=O)OCc1cccnc1 (stereo partly specified)
16 | 12 | 1200 | 7.7 | 380 | 27.6 |  | COc1ccc(COC(=O)NC(C(=O)N[C@@H](Cc2ccccc2)[C@@H](O)C[C@H](Cc2ccccc2)NC(=O)OCc2cccnc2)C(C)C)nc1 (stereo partly specified)
